According to the supplement of paper PMC4862054:

Test system: CAL-120
Experiment: normalised viability (% of control), CellTiter-Blue; higher = more viable cells (100 = DMSO, 0 = benzethonium chloride kill control)
Settings: incubation time: 72 h
Procedure, shortened: (§1)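 Normalised viability is given for a single listed concentration of the series. In 384-well plates, breast cancer cell lines were incubated 72 h with compound, then read with CellTiter-Blue (2 h, 37 °C) at 560/590 nm. Per-plate scaling set vehicle to 100 and a positive kill control to 0, with Z'-factor quality control.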

Compound	normalised viability [%]
COc1cc([C@@H]2c3cc4c(cc3[C@@H](O[C@@H]3O[C@@H]5CO[C@@H](C)O[C@H]5[C@H](O)[C@H]3O)[C@H]3COC(=O)[C@H]23)OCO4)cc(OC)c1O [Etoposide] (1 nM)	98.1
CC1(C)NC(=O)N(c2ccc([N+](=O)[O-])c(C(F)(F)F)c2)C1=O [Nilutamide] (1 nM)	86.6
CO[C@H]1/C=C\C=C(/C)C(=O)NC2=CC(=O)C(NCCN(C)C)=C(C[C@@H](C)C[C@H](OC)[C@H](O)[C@@H](C)/C=C(\C)[C@@H]1OC(N)=O)C2=O [Alvespimycin] (0.1 nM)	100
O=C1CCC(N2C(=O)c3ccccc3C2=O)C(=O)N1 (configuration not stated) [Thalidomide] (1 nM)	115
Cc1ccc(-n2nc(C(C)(C)C)cc2NC(=O)Nc2ccc(OCCN3CCOCC3)c3ccccc23)cc1 [Doramapimod] (1 nM)	89.9
O=P1(NCCCl)OCCCN1CCCl (configuration not stated) [Ifosfamide] (1 nM)	89.7

Test system: MDA-MB-436
Experiment: as above
Settings: incubation time: 72 h
Procedure, shortened: as §1

Compound	normalised viability [%]
Cc1ccc(C(=O)N(CCCN)[C@@H](c2oc3cc(Cl)ccc3c(=O)c2Cc2ccccc2)C(C)C)cc1 (0.1 nM)	111
Clc1ccc(Nc2nnc(Cc3ccncc3)c3ccccc23)cc1 [Vatalanib] (1 nM)	125
COc1cc([C@@H]2c3cc4c(cc3[C@@H](O[C@@H]3O[C@@H]5CO[C@@H](C)O[C@H]5[C@H](O)[C@H]3O)[C@H]3COC(=O)[C@H]23)OCO4)cc(OC)c1O [Etoposide] (1 nM)	105
CC1(C)NC(=O)N(c2ccc([N+](=O)[O-])c(C(F)(F)F)c2)C1=O [Nilutamide] (1 nM)	123
CO[C@H]1/C=C\C=C(/C)C(=O)NC2=CC(=O)C(NCCN(C)C)=C(C[C@@H](C)C[C@H](OC)[C@H](O)[C@@H](C)/C=C(\C)[C@@H]1OC(N)=O)C2=O [Alvespimycin] (0.1 nM)	98
O=C1CCC(N2C(=O)c3ccccc3C2=O)C(=O)N1 (configuration not stated) [Thalidomide] (1 nM)	97
Cc1ccc(-n2nc(C(C)(C)C)cc2NC(=O)Nc2ccc(OCCN3CCOCC3)c3ccccc23)cc1 [Doramapimod] (1 nM)	92.2
O=P1(NCCCl)OCCCN1CCCl (configuration not stated) [Ifosfamide] (1 nM)	95.2

Test system: CAL-148
Experiment: as above
Settings: incubation time: 72 h
Procedure, shortened: as §1

Compound	normalised viability [%]
Cc1ccc(C(=O)N(CCCN)[C@@H](c2oc3cc(Cl)ccc3c(=O)c2Cc2ccccc2)C(C)C)cc1 (0.1 nM)	111
Clc1ccc(Nc2nnc(Cc3ccncc3)c3ccccc23)cc1 [Vatalanib] (1 nM)	90.5
COc1cc([C@@H]2c3cc4c(cc3[C@@H](O[C@@H]3O[C@@H]5CO[C@@H](C)O[C@H]5[C@H](O)[C@H]3O)[C@H]3COC(=O)[C@H]23)OCO4)cc(OC)c1O [Etoposide] (1 nM)	110
CC1(C)NC(=O)N(c2ccc([N+](=O)[O-])c(C(F)(F)F)c2)C1=O [Nilutamide] (1 nM)	103
CO[C@H]1/C=C\C=C(/C)C(=O)NC2=CC(=O)C(NCCN(C)C)=C(C[C@@H](C)C[C@H](OC)[C@H](O)[C@@H](C)/C=C(\C)[C@@H]1OC(N)=O)C2=O [Alvespimycin] (0.1 nM)	102
O=C1CCC(N2C(=O)c3ccccc3C2=O)C(=O)N1 (configuration not stated) [Thalidomide] (1 nM)	122
Cc1ccc(-n2nc(C(C)(C)C)cc2NC(=O)Nc2ccc(OCCN3CCOCC3)c3ccccc23)cc1 [Doramapimod] (1 nM)	97.8
O=P1(NCCCl)OCCCN1CCCl (configuration not stated) [Ifosfamide] (1 nM)	118

Test system: MDA-MB-231
Experiment: as above
Settings: incubation time: 72 h
Procedure, shortened: as §1

Compound	normalised viability [%]
Cc1ccc(C(=O)N(CCCN)[C@@H](c2oc3cc(Cl)ccc3c(=O)c2Cc2ccccc2)C(C)C)cc1 (0.1 nM)	90.4
Clc1ccc(Nc2nnc(Cc3ccncc3)c3ccccc23)cc1 [Vatalanib] (1 nM)	87.7
COc1cc([C@@H]2c3cc4c(cc3[C@@H](O[C@@H]3O[C@@H]5CO[C@@H](C)O[C@H]5[C@H](O)[C@H]3O)[C@H]3COC(=O)[C@H]23)OCO4)cc(OC)c1O [Etoposide] (1 nM)	90.8
CC1(C)NC(=O)N(c2ccc([N+](=O)[O-])c(C(F)(F)F)c2)C1=O [Nilutamide] (1 nM)	131
CO[C@H]1/C=C\C=C(/C)C(=O)NC2=CC(=O)C(NCCN(C)C)=C(C[C@@H](C)C[C@H](OC)[C@H](O)[C@@H](C)/C=C(\C)[C@@H]1OC(N)=O)C2=O [Alvespimycin] (0.1 nM)	99.7
O=C1CCC(N2C(=O)c3ccccc3C2=O)C(=O)N1 (configuration not stated) [Thalidomide] (1 nM)	88.7
Cc1ccc(-n2nc(C(C)(C)C)cc2NC(=O)Nc2ccc(OCCN3CCOCC3)c3ccccc23)cc1 [Doramapimod] (1 nM)	102
O=P1(NCCCl)OCCCN1CCCl (configuration not stated) [Ifosfamide] (1 nM)	122

Test system: CAL-85-1
Experiment: as above
Settings: incubation time: 72 h
Procedure, shortened: as §1

Compound	normalised viability [%]
Cc1ccc(C(=O)N(CCCN)[C@@H](c2oc3cc(Cl)ccc3c(=O)c2Cc2ccccc2)C(C)C)cc1 (0.1 nM)	86.1
Clc1ccc(Nc2nnc(Cc3ccncc3)c3ccccc23)cc1 [Vatalanib] (1 nM)	94.3
COc1cc([C@@H]2c3cc4c(cc3[C@@H](O[C@@H]3O[C@@H]5CO[C@@H](C)O[C@H]5[C@H](O)[C@H]3O)[C@H]3COC(=O)[C@H]23)OCO4)cc(OC)c1O [Etoposide] (1 nM)	99
CC1(C)NC(=O)N(c2ccc([N+](=O)[O-])c(C(F)(F)F)c2)C1=O [Nilutamide] (1 nM)	96
CO[C@H]1/C=C\C=C(/C)C(=O)NC2=CC(=O)C(NCCN(C)C)=C(C[C@@H](C)C[C@H](OC)[C@H](O)[C@@H](C)/C=C(\C)[C@@H]1OC(N)=O)C2=O [Alvespimycin] (0.1 nM)	102
O=C1CCC(N2C(=O)c3ccccc3C2=O)C(=O)N1 (configuration not stated) [Thalidomide] (1 nM)	109
Cc1ccc(-n2nc(C(C)(C)C)cc2NC(=O)Nc2ccc(OCCN3CCOCC3)c3ccccc23)cc1 [Doramapimod] (1 nM)	100
